Laboratory results as given in article PMC10741027, “Risk Assessment of Psychotropic Drugs on Mitochondrial Function Using In Vitro Assays” (Biomedicines, 2023).
Where two headings read alike, the source gives them in different places.

What was measured:
[1] = system: HepG2 cells; assay: Glu/Gal assay: cellular ATP (CellTiter-Glo) after 24 h in glucose or galactose media; conditions: for AC50 / minimal effective concentration: Homo sapiens, HepG2, 24 h
[2] = system: HepG2 cells; assay: Acute extracellular flux (AEF) assay in intact HepG2 cells (Seahorse XFe96); type: cell-based, human
[3] = system: HepG2 cells
[4] = system: rPFO permeabilized HepG2 cells
[5] = literature values, plasma or serum of adult humans when possible; ref 68-88 (per drug, Table 2 Cmax Reference); cited from earlier work
[6] = system: complex I; parameters: method as in PMID 31104106; conditions: 50 µM, 30 min incubation; cited from earlier work
[7] = system: rPFO permeabilized HepG2 cells; assay: Mitochondrial respiratory complexes in rPFO permeabilized HepG2 cells (Seahorse XF); conditions: Homo sapiens, HepG2, read-out: Pyruvate Respiration AC50
[8] = system: liver mitochondria; parameters: method as in PMID 1347214; conditions: rats fed 1% (w/w) for 75 days; cited from earlier work
[9] = system: CI; parameters: method as in PMID 21120605; conditions: 50 µM, 18 h incubation, CHO cells; cited from earlier work
[10] = system: CI-linked respiration; conditions: read-out: concentration inhibiting CI-linked respiration by 50%; rat liver isolated mitochondria; cited from earlier work
[11] = system: ADP-stimulated respiration; conditions: isolated rat liver mitochondria; cited from earlier work
[12] = system: HepG2 cells; parameters: method as in PMID 18344530; conditions: 200 µM, not in Glu media; cited from earlier work
[13] = system: CI; parameters: method as in PMID 18344530; conditions: isolated mitochondria; read-out: CI inhibition IC50; cited from earlier work
[14] = Homo sapiens, HepG2, read-out: AC50 ATP Production
[15] = Homo sapiens, HepG2, read-out: AC50 ECAR
[16] = Homo sapiens, HepG2, read-out: AC50 OCR
[17] = Homo sapiens, HepG2, read-out: AC50 Proton Leak
[18] = Homo sapiens, HepG2, read-out: AC50 Reserve Capacity
[19] = Homo sapiens, HepG2, read-out: MEC ATP Production
[20] = Homo sapiens, HepG2, read-out: MEC OCR
[21] = Homo sapiens, HepG2, minimum effective concentration crossing vehicle control threshold, read-out: MEC ATP Production
[22] = Homo sapiens, HepG2, minimum effective concentration crossing vehicle control threshold, read-out: MEC ECAR
[23] = Homo sapiens, HepG2, concentration at which 50% maximum effect is observed, read-out: AC50 ATP Production
[24] = Homo sapiens, HepG2, concentration at which 50% maximum effect is observed, read-out: AC50 ECAR
[25] = Homo sapiens, HepG2, minimum effective concentration crossing vehicle control threshold, read-out: MEC OCR
[26] = Homo sapiens, HepG2, minimum effective concentration crossing vehicle control threshold, read-out: MEC Reserve Capacity
[27] = Homo sapiens, HepG2, concentration at which 50% maximum effect is observed, read-out: AC50 OCR
[28] = Homo sapiens, HepG2, concentration at which 50% maximum effect is observed, read-out: AC50 Proton Leak
[29] = Homo sapiens, HepG2, concentration at which 50% maximum effect is observed, read-out: AC50 Reserve Capacity

SMILES	AC50 ([1]; read-out: Gal AC50) [µM]	AC50 ([1]; read-out: Glu AC50) [µM]	Cmax [5] [nM]	minimal effective concentration ([1]; read-out: Gal MEC) [µM]	minimal effective concentration ([1]; read-out: Glu MEC) [µM]	minimal effective concentration [2, 21] [µM]	minimal effective concentration [2, 22] [µM]	AC50 [2, 23] [µM]	AC50 [2, 24] [µM]	minimal effective concentration [2, 25] [µM]	minimal effective concentration [2, 26] [µM]	AC50 [2, 29] [µM]	other results
O=C1Nc2ccc(Cl)cc2C(c2ccccc2Cl)=NC1O (centres unmarked) [Lorazepam]	> 100	> 100	100	–	–	–	–	–	–	–	–	–	AC50 [2, 14]: > 100 µM; AC50 [2, 15]: > 100 µM; AC50 [2, 16]: > 100 µM; AC50 [2, 17]: 15 µM; AC50 [2, 18]: > 100 µM; minimal effective concentration [2, 19]: 3.2 µM; minimal effective concentration [2, 20]: 63.7 µM; minimal effective concentration ([2]; Homo sapiens, HepG2, read-out: MEC Proton Leak): 3.14 µM; Effect on cell viability / ATP in Glu and Gal media (in words) [3]: did not exhibit toxicity neither in glucose nor in galactose-grown cells; Most sensitive mechanism / response in permeabilized HepG2 assay (OCR) [4]: did not significantly inhibit any of the ETC complexes
CN1CCN(C2=Nc3cc(Cl)ccc3Nc3ccccc32)CC1 [Clozapine]	60.8	56.7	220	44.4	34.1	37.3	20.2	> 100	> 100	–	–	–	decrease of complex I activity [6]: 85%
CCCC(CCC)C(=O)O [Valproic acid]	> 10000	> 10000	367000	–	–	5200	2600	> 10000	> 10000	520	3090	> 10000	minimal effective concentration ([2]; Homo sapiens, HepG2, minimum effective concentration crossing vehicle control threshold, read-out: MEC Proton Leak): 1140 µM; AC50 [2, 27]: > 10000 µM; AC50 [2, 28]: 9180 µM; AC50 [7]: > 10000 µM; decrease in the respiration rate with substrates feeding CI and CII [8]: 30%
CN1c2ccccc2C(NCCCCCCC(=O)O)c2ccc(Cl)cc2S1(=O)=O (centres unmarked) [Tianeptine]	57.6	> 100	–	41.8	–	–	–	–	–	–	–	–	inhibition of CI activity [9]: ~50%; AC50 [2, 14]: > 100 µM; AC50 [2, 15]: > 100 µM; AC50 [2, 16]: > 100 µM; AC50 [2, 17]: > 100 µM; AC50 [2, 18]: 21.6 µM; minimal effective concentration [2, 19]: 40.3 µM; minimal effective concentration [2, 20]: 5.5 µM; minimal effective concentration ([2]; Homo sapiens, HepG2, read-out: MEC Reserve Capacity): 0.182 µM
CNCCC(Oc1ccc(C(F)(F)F)cc1)c1ccccc1 (centres unmarked) [Fluoxetine]	17.5	13.3	40	12.1	6.89	68.6	67.3	–	–	8.12	25.2	70.4	IC50 [10]: 250 µM
CN1CCN(CCCN2c3ccccc3Sc3ccc(C(F)(F)F)cc32)CC1 [Trifluoperazine]	1.13	1	5	0.8	0.75	–	–	–	–	–	< 0.002	0.157	Effect on cell viability / ATP in Glu and Gal media (in words) ([1]; 24 h incubation, top concentration): complete loss of cell viability in both media; inhibition of ADP-stimulated respiration (concentration) [11]: 66 µM; minimal effective concentration ([2]; minimum effective concentration crossing vehicle control threshold, read-out: MEC Reserve Capacity): <0.002 µM
O=C1CC2(CCCC2)CC(=O)N1CCCCN1CCN(c2ncccn2)CC1 [Buspirone]	99	> 100	3	35.7	–	80.9	–	> 100	> 100	4.83	8.57	43.7	depletion (cytotoxicity) in Gal media [12]: 60%; AC50 [2, 27]: > 100 µM; AC50 [2, 28]: > 100 µM; AC50 [7]: > 100 µM; IC50 [13]: 48 µM
